From US8912209B2, “Rock inhibitors” (Amakem NV, priority 2010, dated 2014)

Biological target: T1, ROCKα/ROCKII (Homo sapiens, UniProt O75116)
T1 construct: purchased Upstate Biotechnology 14-451
Test: ROCK inhibition, Method 2 fluorescence polarization (FP) assay, ROCK IMAP Kit
Assay type: biochemical
Settings: 10 μM ATP, read-out: IC50 Meth. 2
Description: The inhibition assays were performed with a fluorescence polarization (FP) assay using the commercially available ROCK IMAP Kit from Molecular Devices (Product ID. No. R8093), essentially in accordance with the protocol supplied by the manufacturer. […] The enzyme mix ROCKα/ROCKII was obtained from Upstate Biotechnology (Product ID No 14-451).
In summary, all compounds were screened in the wells of a 384 well plate for enzymatic inhibition with concentrations varying from 100 μM to 0.3 nM using a stepwise 3 (or 2)-fold dilution.
To perform the assay, 1 μl of a solution of the compound to be tested in DMSO (at each concentration) was added to 2 μl of a solution of the enzyme in 10 mM Tris-HCl, 10 mM MgCl2, 0.1% BSA, 0.05% NaN3, pH 7,2. The final concentration of the enzyme was 2.6 nM.
After incubating for 30 minutes at RT, 2 μl of a mixture of ATP and the protein substrate in 10 mM Tris-HCl, 10 mM MgCl2, 0.1% BSA, 0.05% NaN3, pH 7.2 was added. The final concentration of the ATP was 10 μM and final concentration of protein substrate was 0.2 μM.
After incubating for 60 minutes at RT, 12 μl of the IMAP Binding Solution (mix of the IMAP Binding Buffer A (1×) and the IMAP Binding Reagent (from the ROCK IMAP kit)) was added.
The mixture thus obtained (total volume: 17 μl) was incubated for 60 minutes at RT, upon which the fluorescence polarization was measured using an automated plate reader (Perkin Elmer, Model Envision 2100-0010 HTS) with FP filters: excitation filter FITC FP 480 and emission filters FITC FP P-pol 535 and FITC FP S-pol 535 (Perkin-Elmer). The results were fitted to a curve using the XL-Fit algorithm and IC50 values were calculated for each fitted curve, again using the XL-Fit algorithm.

T1 sequence (O75116 whole entry): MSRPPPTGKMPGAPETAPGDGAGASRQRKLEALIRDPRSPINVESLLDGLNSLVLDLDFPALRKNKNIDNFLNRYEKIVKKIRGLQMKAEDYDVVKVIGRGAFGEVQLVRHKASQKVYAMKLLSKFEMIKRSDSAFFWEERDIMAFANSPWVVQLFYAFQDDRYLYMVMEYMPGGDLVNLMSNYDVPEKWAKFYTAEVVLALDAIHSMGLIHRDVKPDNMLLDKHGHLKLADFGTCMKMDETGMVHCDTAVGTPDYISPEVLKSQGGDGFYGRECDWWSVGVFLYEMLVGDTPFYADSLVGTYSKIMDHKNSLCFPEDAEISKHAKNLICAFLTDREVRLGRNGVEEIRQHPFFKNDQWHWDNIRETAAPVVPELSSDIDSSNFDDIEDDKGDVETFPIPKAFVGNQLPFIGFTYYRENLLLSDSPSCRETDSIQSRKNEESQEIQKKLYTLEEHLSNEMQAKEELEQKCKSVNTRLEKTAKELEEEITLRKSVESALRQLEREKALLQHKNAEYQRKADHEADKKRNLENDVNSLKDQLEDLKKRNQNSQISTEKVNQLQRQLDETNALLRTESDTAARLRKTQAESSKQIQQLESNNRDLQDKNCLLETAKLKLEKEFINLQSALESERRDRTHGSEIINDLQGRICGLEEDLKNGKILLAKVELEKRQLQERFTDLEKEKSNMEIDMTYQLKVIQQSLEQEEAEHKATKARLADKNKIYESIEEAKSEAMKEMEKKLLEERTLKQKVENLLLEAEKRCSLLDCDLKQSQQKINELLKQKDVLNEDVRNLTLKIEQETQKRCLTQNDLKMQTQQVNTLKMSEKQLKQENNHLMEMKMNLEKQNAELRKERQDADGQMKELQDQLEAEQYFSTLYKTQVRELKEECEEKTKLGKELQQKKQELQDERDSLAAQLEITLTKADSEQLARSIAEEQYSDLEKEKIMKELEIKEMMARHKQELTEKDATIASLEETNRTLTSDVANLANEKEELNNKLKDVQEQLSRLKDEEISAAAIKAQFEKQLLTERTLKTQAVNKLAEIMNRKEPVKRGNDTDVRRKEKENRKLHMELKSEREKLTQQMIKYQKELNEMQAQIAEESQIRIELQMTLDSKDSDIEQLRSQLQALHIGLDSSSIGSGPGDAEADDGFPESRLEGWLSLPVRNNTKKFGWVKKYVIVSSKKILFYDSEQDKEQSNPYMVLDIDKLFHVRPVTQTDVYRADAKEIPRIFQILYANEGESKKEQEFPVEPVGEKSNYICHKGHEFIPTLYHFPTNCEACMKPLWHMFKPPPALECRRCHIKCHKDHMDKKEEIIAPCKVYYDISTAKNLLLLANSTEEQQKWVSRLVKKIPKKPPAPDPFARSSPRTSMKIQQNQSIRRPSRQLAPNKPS

C=CCCCCCCCCOC(=O)c1cccc(-c2cc(C(=O)Nc3ccncc3)ccc2C(C)N)c1 (centres unmarked) [Compound 25, 2′-(1-Amino-ethyl)-5′-(pyridin-4-ylcarbamoyl)-biphenyl-3-carboxylic acid dec-9-enyl ester] gave an IC50 of 100 to 1000 nM.
CC(N)c1ccc(C(=O)Nc2ccncc2)cc1-c1cccc(C(=O)OCC2CC2)c1 (centres unmarked) [Compound 36, 2′-(1-Amino-ethyl)-5′-(pyridin-4-ylcarbamoyl)-biphenyl-3-carboxylic acid cyclopropylmethyl ester] was tested, and the IC50 was < 100 nM.
CC(N)c1ccc(C(=O)Nc2ccncc2)cc1-c1cccc(C(=O)OCc2c(F)c(F)c(F)c(F)c2F)c1 (centres unmarked) [Compound 83, 2′-(1-Amino-ethyl)-5′-(pyridin-4-ylcarbamoyl)-biphenyl-3-carboxylic acid pentafluoro-phenylmethyl ester] was tested, and the IC50 was 100 to 1000 nM.
CCOC(=O)c1cccc(-c2cc(C(=O)Nc3ccncc3F)ccc2C(C)N)c1 (centres unmarked) [Compound 9, 2′-(1-Amino-ethyl)-5′-(3-fluoro-pyridin-4-ylcarbamoyl)-biphenyl-3-carboxylic acid ethyl ester] was tested, and the IC50 was < 100 nM.
For CC(N)c1ccc(C(=O)Nc2ccncc2F)cc1-c1cccc(C(=O)OCCO)c1 (centres unmarked) [Compound 67, 2′-(1-Amino-ethyl)-5′-(3-fluoro-pyridin-4-ylcarbamoyl)-biphenyl-3-carboxylic acid 2-hydroxy-ethyl ester], the IC50 was < 100 nM.
Molecule “2′-(1-Amino-ethyl)-5′- (pyridin-4-ylcarbamoyl)- biphenyl-3-carboxylic acid 2-(toluene-4-sulfonyl)-ethyl ester [Compound 89]” has an IC50 of 100 to 1000 nM.
In the case of CC(C)OC(=O)c1cccc(-c2cc(C(=O)Nc3ccncc3)ccc2C(C)N)c1 (centres unmarked) [Compound 27, 2′-(1-Amino-ethyl)-5′-(pyridin-4-ylcarbamoyl)-biphenyl-3-carboxylic acid isopropyl ester], the IC50 is reported as < 100 nM.
Molecule CC(N)c1ccc(C(=O)Nc2ccncc2F)cc1-c1cccc(C(=O)OCCF)c1 (centres unmarked) [Compound 61, 2′-(1-Amino-ethyl)-5′-(3-fluoro-pyridin-4-ylcarbamoyl)-biphenyl-3-carboxylic acid 2-fluoro-ethyl ester] has an IC50 of 100 to 1000 nM.
Work on CC(N)c1ccc(C(=O)Nc2ccncc2F)cc1-c1cccc(OCCSC2CCOC2=O)c1 (centres unmarked) [Compound 177] yielded an IC50 of 100 to 1000 nM.
With CC(N)c1ccc(C(=O)Nc2ccncc2)cc1-c1cccc(C(=O)OCC2COc3ccccc3O2)c1 (centres unmarked) [Compound 56, 2′-(1-Amino-ethyl)-5′-(pyridin-4-ylcarbamoyl)-biphenyl-3-carboxylic acid 2,3-dihydro-benzo[1,4]dioxin-2-ylmethyl ester] the IC50 was 100 to 1000 nM.
CC(N)c1ccc(C(=O)Nc2ccncc2)cc1-c1cccc(C(=O)OCCc2cccs2)c1 (centres unmarked) [Compound 91, 2′-(1-Amino-ethyl)-5′-(pyridin-4-ylcarbamoyl)-biphenyl-3-carboxylic acid 2-thiophen-2-yl-ethyl ester] was tested, and the IC50 was 100 to 1000 nM.
In the case of CCOC(=O)CSCC(=O)Nc1cccc(-c2cc(C(=O)Nc3ccncc3)ccc2C(C)N)c1 (centres unmarked) [Compound 154, {[2′-(1-Aminoethyl)-5′-(pyridin-4-ylcarbamoyl)-biphenyl-3-ylcarbamoyl]-methylsulfanyl}-acetic acid ethyl ester], the IC50 is reported as < 100 nM.
With CC(N)c1ccc(C(=O)Nc2ccncc2F)cc1-c1cccc(C(=O)OCCCO)c1 (centres unmarked) [Compound 68, 2′-(1-Amino-ethyl)-5′-(3-fluoro-pyridin-4-ylcarbamoyl)-biphenyl-3-carboxylic acid 3-hydroxy-propyl ester] the IC50 was < 100 nM.
CC(N)c1ccc(C(=O)Nc2ccncc2)cc1-c1cccc(C(=O)OCCCl)c1 (centres unmarked) [Compound 62, 2′-(1-Amino-ethyl)-5′-(pyridin-4-ylcarbamoyl)-biphenyl-3-carboxylic acid 2-chloro-ethyl ester] was tested, and the IC50 was < 100 nM.
With CC(N)c1ccc(C(=O)Nc2ccncc2)cc1-c1cccc(C(=O)NC2CCSC2=O)c1 (centres unmarked) [Compound 112, 6-(1-Amino-ethyl)-biphenyl-3,3′-dicarboxylic acid 3′-[(2-oxo-tetrahydro-thiophen-3-yl)-amide] 3-pyridin-4-ylamide] the IC50 was < 100 nM.
Molecule CCCOC(=O)COc1cccc(-c2cc(C(=O)Nc3ccncc3F)ccc2C(C)N)c1 (centres unmarked) [Compound 141, [2′-(1-Amino-ethyl)-5′-(3-fluoro-pyridin-4-ylcarbamoyl)-biphenyl-3-yloxy]-acetic acid propyl ester] has an IC50 of 100 to 1000 nM.
Work on CC(N)c1ccc(C(=O)Nc2ccncc2)cc1-c1cccc(C(=O)OCCN2C(=O)c3ccccc3C2=O)c1 (centres unmarked) [Compound 95, 2′-(1-Amino-ethyl)-5′-(pyridin-4-ylcarbamoyl)-biphenyl-3-carboxylic acid 2-(1,3-dioxo-1,3-dihydro-isoindol-2-yl)-ethyl ester] yielded an IC50 of 100 to 1000 nM.
CC(N)c1ccc(C(=O)Nc2ccncc2)cc1-c1cccc(C(=O)OCc2ccccc2[N+](=O)[O-])c1 (centres unmarked) [Compound 85, 2′-(1-Amino-ethyl)-5′-(pyridin-4-ylcarbamoyl)-biphenyl-3-carboxylic acid 2-nitro-benzyl ester] showed an IC50 of 100 to 1000 nM.
COc1cc(OC)cc(OC(=O)c2cccc(-c3cc(C(=O)Nc4ccncc4F)ccc3C(C)N)c2)c1 (centres unmarked) [Compound 76, 2′-(1-Amino-ethyl)-5′-(3-fluoro-pyridin-4-ylcarbamoyl)-biphenyl-3-carboxylic acid 3,5-dimethoxy-phenyl ester] was tested, and the IC50 was 100 to 1000 nM.
For CC(N)c1ccc(C(=O)Nc2ccncc2)cc1-c1cccc(C(=O)OCCCCCl)c1 (centres unmarked) [Compound 69, 2′-(1-Amino-ethyl)-5′-(pyridin-4-ylcarbamoyl)-biphenyl-3-carboxylic acid 4-chloro-butyl ester], the IC50 was < 100 nM.
In the case of COc1ccc(OC(=O)c2cccc(-c3cc(C(=O)Nc4ccncc4)ccc3C(C)N)c2)c(OC)c1OC (centres unmarked) [Compound 81, 2′-(1-Amino-ethyl)-5′-(pyridin-4-ylcarbamoyl)-biphenyl-3-carboxylic acid 2,3,4-trimethoxy-phenyl ester], the IC50 is reported as < 100 nM.
CC(N)c1ccc(C(=O)Nc2ccncc2)cc1-c1cccc(C(=O)OCCc2ccsc2)c1 (centres unmarked) [Compound 92, 2′-(1-Amino-ethyl)-5′-(pyridin-4-ylcarbamoyl)-biphenyl-3-carboxylic acid 2-thiophen-3-yl-ethyl ester] gave an IC50 of 100 to 1000 nM.
For CCCCCCCOC(=O)c1cccc(-c2cc(C(=O)Nc3ccncc3)ccc2C(C)N)c1 (centres unmarked) [Compound 18, 2′-(1-Amino-ethyl)-5′-(pyridin-4-ylcarbamoyl)-biphenyl-3-carboxylic acid heptyl ester], the IC50 was 100 to 1000 nM.
CC#CCOC(=O)c1cccc(-c2cc(C(=O)Nc3ccncc3)ccc2C(C)N)c1 (centres unmarked) [Compound 59, 2′-(1-Amino-ethyl)-5′-(pyridin-4-ylcarbamoyl)-biphenyl-3-carboxylic acid but-2-ynyl ester] was tested, and the IC50 was < 100 nM.
CC(N)c1ccc(C(=O)Nc2ccncc2)cc1-c1cccc(C(=O)OC2CCCC2)c1 (centres unmarked) [Compound 33, 2′-(1-Amino-ethyl)-5′-(pyridin-4-ylcarbamoyl)-biphenyl-3-carboxylic acid cyclopentyl ester] was tested, and the IC50 was < 100 nM.
COC(=O)c1cccc(-c2cc(C(=O)Nc3ccncc3)ccc2C(C)N)c1 (centres unmarked) [Compound 4, 2′-(1-Amino-ethyl)-5′-(pyridin-4-ylcarbamoyl)-biphenyl-3-carboxylic acid methyl ester] was tested, and the IC50 was < 100 nM.
With CC(N)c1ccc(C(=O)Nc2ccncc2)cc1-c1cccc(C(=O)OCC(=O)c2ccc(Br)cc2)c1 (centres unmarked) [Compound 96, 2′-(1-Amino-ethyl)-5′-(pyridin-4-ylcarbamoyl)-biphenyl-3-carboxylic acid 2-(4-bromo-phenyl)-2-oxo-ethyl ester] the IC50 was < 100 nM.
Molecule CC(N)c1ccc(C(=O)Nc2ccncc2F)cc1-c1cccc(OCC(=O)Oc2ccccc2)c1 (centres unmarked) [Compound 142, [2′-(1-Amino-ethyl)-5′-(3-fluoro-pyridin-4-ylcarbamoyl)-biphenyl-3-yloxy]-acetic acid phenyl ester] has an IC50 of 100 to 1000 nM.
In the case of CCCCCCCCOC(=O)c1cccc(-c2cc(C(=O)Nc3ccncc3)ccc2C(C)N)c1 (centres unmarked) [Compound 19, 2′-(1-Amino-ethyl)-5′-(pyridin-4-ylcarbamoyl)-biphenyl-3-carboxylic acid octyl ester], the IC50 is reported as 100 to 1000 nM.
For CC(N)c1ccc(C(=O)Nc2ccncc2)cc1-c1cccc2[nH]c(C(=O)Oc3ccccc3)cc12 (centres unmarked) [Compound 173, 4-[2-(1-Amino-ethyl)-5-(pyridin-4-ylcarbamoyl)-phenyl]-1H-indole-2-carboxylic acid phenyl ester], the IC50 was 100 to 1000 nM.
For CC(N)c1ccc(C(=O)Nc2ccncc2)cc1-c1cccc(C(=O)OCCc2ccccn2)c1 (centres unmarked) [Compound 93, 2′-(1-Amino-ethyl)-5′-(pyridin-4-ylcarbamoyl)-biphenyl-3-carboxylic acid 2-pyridin-2-yl-ethyl ester], the IC50 was < 100 nM.
Molecule COc1cc(OC(=O)c2cccc(-c3cc(C(=O)Nc4ccncc4)ccc3C(C)N)c2)cc(OC)c1OC (centres unmarked) [Compound 80, 2′-(1-Amino-ethyl)-5′-(pyridin-4-ylcarbamoyl)-biphenyl-3-carboxylic acid 3,4,5-trimethoxy-phenyl ester] has an IC50 of 100 to 1000 nM.
